Test results from ChEMBL document CHEMBL5608113, “Targeting of CAF-induced therapy resistance in CRC organoid-stroma co-cultures” (2024).
Where “and” joins values, the source holds several entries; their conditions need not be identical. Equal entries are not always repeated.

What was measured:
Format in all cases: functional, Homo sapiens
Conditions in all cases: for viability at 10 µM / viability at 1 µM: Homo sapiens, read-out: Cell Viability; for viability at 1 µM: Concentration 1 uM
Colon cancer organoid [1] = assay: Targeting of F14 CAF-induced therapy resistance in O14 CRC organoid-stroma co-culture. Cell viability is reported without Gefitinib.
Colon cancer organoid [2] = assay: Targeting of F14 CAF-induced therapy resistance in O14 CRC organoid-stroma co-culture. Cell viability is reported with Gefitinib.
Colon cancer organoid [3] = assay: Targeting of F14 CAF-induced therapy resistance in O23 CRC organoid-stroma co-culture. Cell viability is reported without Gefitinib.
Colon cancer organoid [4] = assay: Targeting of F14 CAF-induced therapy resistance in O23 CRC organoid-stroma co-culture. Cell viability is reported with Gefitinib.
Colon cancer organoid [5] = assay: Targeting of F14 CAF-induced therapy resistance in O23 CRC organoid-stroma co-culture. Cell viability is reported with SN-38.

Structure (SMILES): CO[C@H]1CC[C@H](CNc2ccc(S(=O)(=O)NC(=O)c3ccc(N4CCN(CC5=C(c6ccc(Cl)cc6)CC(C)(C)CC5)CC4)cc3Oc3cnc4[nH]ccc4c3)cc2[N+](=O)[O-])CC1 [A-1211212]
- viability at 10 µM (Colon cancer organoid [1]; Concentration 10 uM): 40.4%
- viability at 10 µM (Colon cancer organoid [2]; Concentration 10 uM): 25%
- viability at 10 µM (Colon cancer organoid [3]; Concentration 10 uM): 83.3%
- viability at 10 µM (Colon cancer organoid [4]; Concentration 10 uM): 30.6%
- viability at 10 µM (Colon cancer organoid [5]; Concentration 10 uM): 32.3%

Structure (SMILES): Cn1c(C2(NC(=O)c3ccc(NCC4CCCCC4)nc3)CCC2)nc2ccc(/C=C/C(=O)O)cc21 [BI 7656]
- viability at 10 µM (Colon cancer organoid [1]; Concentration 10 uM): 101%
- viability at 10 µM (Colon cancer organoid [2]; Concentration 10 uM): 45.1%
- viability at 10 µM (Colon cancer organoid [3]; Concentration 10 uM): 131%
- viability at 10 µM (Colon cancer organoid [4]; Concentration 10 uM): 77.7%
- viability at 10 µM (Colon cancer organoid [5]; Concentration 10 uM): 69.9%

Structure (SMILES): CCCS(=O)(=O)c1nc(NC2CC2)cc(-c2ccc3c(ccn3C3CC(C)(C)NC(C)(C)C3)c2)n1
- Cell Viability (Colon cancer organoid [1]; Concentration 10 uM, 10 µM): 91.0371% and 136.896%
- Cell Viability (Colon cancer organoid [2]; Concentration 10 uM, 10 µM): 57.1178%
- viability at 10 µM (Colon cancer organoid [2]; Concentration 10 uM): 49.6%
- Cell Viability (Colon cancer organoid [3]; Concentration 10 uM, 10 µM): 73.362% and 105.525%
- Cell Viability (Colon cancer organoid [4]; Concentration 10 uM, 10 µM): 66.056%
- viability at 10 µM (Colon cancer organoid [4]; Concentration 10 uM): 68.4%
- Cell Viability (Colon cancer organoid [5]; Concentration 10 uM, 10 µM): 68.6533%
- viability at 10 µM (Colon cancer organoid [5]; Concentration 10 uM): 77.1%

Structure (SMILES): CCOC(=O)c1c(/C(C#N)=C\N)c2ccc(Cl)c(Cl)c2n1C
- viability at 10 µM (Colon cancer organoid [1]; Concentration 10 uM): 106%
- viability at 10 µM (Colon cancer organoid [2]; Concentration 10 uM): 47.7%
- viability at 10 µM (Colon cancer organoid [3]; Concentration 10 uM): 99.7%
- viability at 10 µM (Colon cancer organoid [4]; Concentration 10 uM): 52%
- viability at 10 µM (Colon cancer organoid [5]; Concentration 10 uM): 68.1%

Structure (SMILES): Cn1cc(-c2ccc3occ(-c4cccc(-c5ccncc5)c4)c3n2)cn1
- viability at 10 µM (Colon cancer organoid [1]; Concentration 10 uM): 112%
- viability at 10 µM (Colon cancer organoid [2]; Concentration 10 uM): 56.4%
- viability at 10 µM (Colon cancer organoid [3]; Concentration 10 uM): 114%
- viability at 10 µM (Colon cancer organoid [4]; Concentration 10 uM): 87.7%
- viability at 10 µM (Colon cancer organoid [5]; Concentration 10 uM): 65.6%

Structure (SMILES): Cc1ccc(NC(=O)Nc2cc(C(F)(F)F)ccc2F)cc1Nc1ccc2c(c1)NC(=O)/C2=C\c1ccc[nH]1
- viability at 10 µM (Colon cancer organoid [1]; Concentration 10 uM): 121%
- viability at 10 µM (Colon cancer organoid [2]; Concentration 10 uM): 40%
- viability at 10 µM (Colon cancer organoid [3]; Concentration 10 uM): 117%
- viability at 10 µM (Colon cancer organoid [4]; Concentration 10 uM): 82.1%
- viability at 10 µM (Colon cancer organoid [5]; Concentration 10 uM): 74.2%

Structure (SMILES): CN(C)C(=O)/C(C#N)=C/c1ccc(-c2nc3cnc4[nH]ccc4c3n2C2CCCCC2)o1
- viability at 10 µM (Colon cancer organoid [1]; Concentration 10 uM): 117%
- viability at 10 µM (Colon cancer organoid [2]; Concentration 10 uM): 47.2%
- viability at 10 µM (Colon cancer organoid [3]; Concentration 10 uM): 96.1%
- viability at 10 µM (Colon cancer organoid [4]; Concentration 10 uM): 56.7%
- viability at 10 µM (Colon cancer organoid [5]; Concentration 10 uM): 65.2%

Structure (SMILES): C[C@@H](c1cccc(C#N)c1)n1cc(Cl)cc(C(N)=O)c1=N
- viability at 10 µM (Colon cancer organoid [1]; Concentration 10 uM): 76.7%
- viability at 10 µM (Colon cancer organoid [2]; Concentration 10 uM): 34.3%
- viability at 10 µM (Colon cancer organoid [3]; Concentration 10 uM): 126%
- viability at 10 µM (Colon cancer organoid [4]; Concentration 10 uM): 49.6%
- viability at 10 µM (Colon cancer organoid [5]; Concentration 10 uM): 62.2%

Structure (SMILES): COc1cc(Nc2ccnc3ccc(Br)cc23)cc(OC)c1OC
- viability at 10 µM (Colon cancer organoid [1]; Concentration 10 uM): 18.2%
- viability at 10 µM (Colon cancer organoid [2]; Concentration 10 uM): 8.76%
- viability at 10 µM (Colon cancer organoid [3]; Concentration 10 uM): 35%
- viability at 10 µM (Colon cancer organoid [4]; Concentration 10 uM): 6.32%
- viability at 10 µM (Colon cancer organoid [5]; Concentration 10 uM): 12.5%

Structure (SMILES): CN(C(=O)c1cnn2cccnc12)c1cc2c(cc1N1CCOCC1)C(=O)N(C[C@@H](F)C(C)(C)O)C2
- viability at 10 µM (Colon cancer organoid [1]; Concentration 10 uM): 139%
- viability at 10 µM (Colon cancer organoid [2]; Concentration 10 uM): 38.6%
- viability at 10 µM (Colon cancer organoid [3]; Concentration 10 uM): 92.3%
- viability at 10 µM (Colon cancer organoid [4]; Concentration 10 uM): 39.2%
- viability at 10 µM (Colon cancer organoid [5]; Concentration 10 uM): 61.8%

Structure (SMILES): CNC(=O)Nc1ccc2c(c1)[C@@]1(CC2)OC(=O)N(CC(=O)N(Cc2ccc(F)cc2)[C@@H](C)C(F)(F)F)C1=O [A-486]
- viability at 1 µM (Colon cancer organoid [1]): 90.8%
- viability at 1 µM (Colon cancer organoid [2]): 50%
- viability at 1 µM (Colon cancer organoid [3]): 92.2%
- viability at 1 µM (Colon cancer organoid [4]): 47.9%
- viability at 1 µM (Colon cancer organoid [5]): 69.7%

Structure (SMILES): Cc1cc(NC(=O)c2cccc(S(F)(F)(F)(F)F)c2)cc(-n2ccn3nc(-c4cccnc4)cc23)c1 [BAY-309]
- viability at 10 µM (Colon cancer organoid [1]; Concentration 10 uM): 87.3%
- viability at 10 µM (Colon cancer organoid [2]; Concentration 10 uM): 49.9%
- viability at 10 µM (Colon cancer organoid [3]; Concentration 10 uM): 159%
- viability at 10 µM (Colon cancer organoid [4]; Concentration 10 uM): 65%
- viability at 10 µM (Colon cancer organoid [5]; Concentration 10 uM): 61.2%

Structure (SMILES): C[C@H](NC(=O)Nc1cc2[nH]ncc2c(CO)n1)c1ccccn1 [ERKi-NC]
- viability at 10 µM (Colon cancer organoid [1]; Concentration 10 uM): 71.3%
- viability at 10 µM (Colon cancer organoid [2]; Concentration 10 uM): 21.8%
- viability at 10 µM (Colon cancer organoid [3]; Concentration 10 uM): 94.9%
- viability at 10 µM (Colon cancer organoid [4]; Concentration 10 uM): 40.9%
- viability at 10 µM (Colon cancer organoid [5]; Concentration 10 uM): 62.2%

Structure (SMILES): CCc1cc2cc(NS(=O)(=O)c3ccc(C#N)cc3)ccc2n(CC)c1=O
- viability at 10 µM (Colon cancer organoid [1]; Concentration 10 uM): 106%
- viability at 10 µM (Colon cancer organoid [2]; Concentration 10 uM): 84%
- viability at 10 µM (Colon cancer organoid [3]; Concentration 10 uM): 127%
- viability at 10 µM (Colon cancer organoid [4]; Concentration 10 uM): 73.6%
- viability at 10 µM (Colon cancer organoid [5]; Concentration 10 uM): 88.2%

Structure (SMILES): COc1ccc2c(O[C@@H]3C[C@H]4C(=O)N[C@]5(C(=O)O)CC5/C=C\CCCCC[C@H](NC(=O)OC5CCCC5)C(=O)N4C3)cc(-c3csc(NC(=O)C(C)C)n3)nc2c1C (stereo partly drawn) [BI 1230]
- viability at 10 µM (Colon cancer organoid [1]; Concentration 10 uM): 152%
- viability at 10 µM (Colon cancer organoid [2]; Concentration 10 uM): 50%
- viability at 10 µM (Colon cancer organoid [3]; Concentration 10 uM): 141%
- viability at 10 µM (Colon cancer organoid [4]; Concentration 10 uM): 63.1%
- viability at 10 µM (Colon cancer organoid [5]; Concentration 10 uM): 77.1%

Structure (SMILES): O=C(N1CCS(=O)(=O)CC1)N1C[C@H](c2ccc(OC(F)(F)F)cc2)C[C@H](c2nc(C3CC3)no2)C1 [BAY-386]
- viability at 10 µM (Colon cancer organoid [1]; Concentration 10 uM): 103%
- viability at 10 µM (Colon cancer organoid [2]; Concentration 10 uM): 53.2%
- viability at 10 µM (Colon cancer organoid [3]; Concentration 10 uM): 120%
- viability at 10 µM (Colon cancer organoid [4]; Concentration 10 uM): 55.9%
- viability at 10 µM (Colon cancer organoid [5]; Concentration 10 uM): 74.8%

Structure (SMILES): CC1=C(C)C(=O)C(C(C)(C)CC(=O)N(CCCCSC[C@H]2O[C@@H](n3cnc4c(N)ncnc43)[C@H](O)[C@@H]2O)Cc2cccc(-c3ccc(Cl)cc3)c2)=C(C)C1=O
- viability at 10 µM (Colon cancer organoid [1]; Concentration 10 uM): 89.1%
- viability at 10 µM (Colon cancer organoid [2]; Concentration 10 uM): 59.5%
- viability at 10 µM (Colon cancer organoid [3]; Concentration 10 uM): 92.3%
- viability at 10 µM (Colon cancer organoid [4]; Concentration 10 uM): 57.2%
- viability at 10 µM (Colon cancer organoid [5]; Concentration 10 uM): 69.9%

Structure (SMILES): CC(C)CC(=O)N1CCc2nc(-c3ccc(Br)cc3)nc(N(C)Cc3ccccc3)c2C1 [THPP-1-NC]
- viability at 1 µM (Colon cancer organoid [1]): 95.7%
- viability at 1 µM (Colon cancer organoid [2]): 39.6%
- viability at 1 µM (Colon cancer organoid [3]): 127%
- viability at 1 µM (Colon cancer organoid [4]): 47.3%
- viability at 1 µM (Colon cancer organoid [5]): 70.5%

Structure (SMILES): CNc1nc(-c2ccc3c(N)n[nH]c3c2)cc(N2C[C@@H](C(=O)NC3CCCCC3)CC[C@H]2C)n1
- viability at 10 µM (Colon cancer organoid [1]; Concentration 10 uM): 57.6%
- viability at 10 µM (Colon cancer organoid [2]; Concentration 10 uM): 17.9%
- viability at 10 µM (Colon cancer organoid [3]; Concentration 10 uM): 44.8%
- viability at 10 µM (Colon cancer organoid [4]; Concentration 10 uM): 24.3%
- viability at 10 µM (Colon cancer organoid [5]; Concentration 10 uM): 39.8%

Structure (SMILES): CNC(=O)c1cc(C(=O)N[C@H]2[C@@H]3COC[C@@H]32)cc2c1O[C@H](CF)[C@H]2c1ccccc1 [GSK973]
- viability at 10 µM (Colon cancer organoid [1]; Concentration 10 uM): 99.3%
- viability at 10 µM (Colon cancer organoid [2]; Concentration 10 uM): 23.6%
- viability at 10 µM (Colon cancer organoid [3]; Concentration 10 uM): 102%
- viability at 10 µM (Colon cancer organoid [4]; Concentration 10 uM): 58.5%
- viability at 10 µM (Colon cancer organoid [5]; Concentration 10 uM): 46.5%

Structure (SMILES): COc1cc(C#N)ccc1S(=O)(=O)Nc1ccc2c(c1)cc(C)c(=O)n2C
- viability at 10 µM (Colon cancer organoid [1]; Concentration 10 uM): 101%
- viability at 10 µM (Colon cancer organoid [2]; Concentration 10 uM): 66.9%
- viability at 10 µM (Colon cancer organoid [3]; Concentration 10 uM): 149%
- viability at 10 µM (Colon cancer organoid [4]; Concentration 10 uM): 86%
- viability at 10 µM (Colon cancer organoid [5]; Concentration 10 uM): 127%

Structure (SMILES): Cc1cccc(-c2cnc3occ(-c4ccc(C(=O)O)c(C5CCCC5)c4)c3c2)c1
- viability at 10 µM (Colon cancer organoid [1]; Concentration 10 uM): 112%
- viability at 10 µM (Colon cancer organoid [2]; Concentration 10 uM): 52.4%
- viability at 10 µM (Colon cancer organoid [3]; Concentration 10 uM): 111%
- viability at 10 µM (Colon cancer organoid [4]; Concentration 10 uM): 75.6%
- viability at 10 µM (Colon cancer organoid [5]; Concentration 10 uM): 66.7%
